Reference: patent publication US10030016B2 (Sunesis Pharmaceuticals, Inc., priority 2009, dated 2018)
Where a name gives a salt, the structure may show the parent alone. Read-outs that look alike come from different tables or passages of the source.

Tests used:
[1] = biological target: PDK1 (Homo sapiens (Human), UniProt O15530); test: PDK1 kinase assay (coupled PDK1/AKT/FAM-crosstide assay, IMAP fluorescence polarization); type: biochemical
Summary of the method: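 PDK1 activity is measured indirectly through activation of a PIFtide-fused AKT2 construct that phosphorylates FAM-crosstide (100 nM). The reaction uses 0.75 nM PDK1, 40 μM ATP, 30 min, 25° C, with IMAP polarization detection.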

[2] = test system: phospho-akt (Thr308) in PC-3 cells; test: Inhibition of phospho-akt (Thr308) in PC-3 cells, MSD phospho-akt 308 ELISA kit; type: cell-based; conditions: 2 hours, no serum, read-out: EC50
Summary of the method: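 Serum-free 2 h compound exposure of overnight-seeded PC-3 cells, threefold dilution series; lysates analysed on blocked MSD plates (3% BSA) for Thr308-phosphorylated Akt, normalised between DMSO and 5 μM wortmannin wells.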

[3] = inhibition of phospo-PDK1 in vitro
[4] = Homo sapiens, inhibition of P308 Akt in PC-3 cells, MSD
[5] = Homo sapiens, inhibition of P308 Akt in PC-3 cells using MSD
[6] = Homo sapiens, PC-3, 2 h, inhibition of P308 Akt in PC-3 cells using MSD

PDK1, sequence (O15530 51-359): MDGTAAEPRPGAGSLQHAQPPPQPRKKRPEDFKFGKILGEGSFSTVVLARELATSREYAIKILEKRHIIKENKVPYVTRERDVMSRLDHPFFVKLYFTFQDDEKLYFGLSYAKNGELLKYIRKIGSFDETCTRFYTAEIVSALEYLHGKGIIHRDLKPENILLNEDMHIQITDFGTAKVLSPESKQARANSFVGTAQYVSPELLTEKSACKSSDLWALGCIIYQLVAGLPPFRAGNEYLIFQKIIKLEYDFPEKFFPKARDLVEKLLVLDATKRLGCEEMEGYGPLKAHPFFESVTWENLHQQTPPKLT

Nc1ncnc2ccc(-c3ccc(CNc4ncccc4C(=O)Nc4ccc(F)c(F)c4)s3)cc12 [Example 3.24, 2-({[5-(4-aminoquinazolin-6-yl)thiophen-2-yl]methyl}amino)-N-(3,4-difluorophenyl)pyridine-3-carboxamide (TFA salt)]
IC50 [1, 3]: 100 to 1000 nM | EC50 [2, 4]: 1000 to 10000 nM

O=C(NCc1ccc(F)cc1)c1cccnc1NCc1ccc(-c2cnc3[nH]c(=O)[nH]c3c2)cc1 [Example 360, N-(4-fluorobenzyl)-2-(4-(2-oxo-2,3-dihydro-1H-imidazo [4,5-b]pyridin-6-yl)benzyl-amino)nicotinamide]
IC50 ([1]; inhibition of PDK1 in vitro): < 100 nM | EC50 [2, 5]: < 1000 nM

Nc1ncnc2ccc(-c3ccc(CNc4ncccc4C(=O)NCc4ccc(F)c(F)c4)s3)cc12 [Example 4.4, 2-(((5-(4-aminoquinazolin-6-yl)thiophen-2-yl)methyl)amino)-N-(3,4-difluorobenzyl)nicotinamide]
IC50 [1, 3]: < 100 nM | EC50 [2, 4]: < 1000 nM

C[C@H](NC(=O)c1cc(C#N)cnc1NCc1ccc(-c2cnc(N)c(C(=O)NCCO)c2)cc1)c1ccc(F)cc1 [Example 204, (S)-2-amino-5-(4-((5-cyano-3-(1-(4-fluorophenyl)ethylcarbamoyl)pyridin-2-ylamino)methyl)phenyl)-N-(2-hydroxyethyl) nicotinamide]
IC50 ([1]; inhibition of PDK1 in vitro): < 100 nM | EC50 [2, 5]: < 1000 nM

O=C(NCc1ccc(F)c(F)c1)c1cccnc1NCc1ccc(-c2cnc3[nH]ccc3c2)s1 [Example 2.31, 2-(((5-(1H-pyrrolo[2,3-b]pyridin-5-yl)thiophen-2-yl)methyl)amino)-N-(3,4-difluorobenzyl) nicotinamide]
IC50 [1, 3]: 100 to 1000 nM | EC50 ([2]; inhibition of P308 Akt in PC-3 cells, MSD): 1000 to 10000 nM

COc1cc2ncnc(-c3ccc(CNc4ncccc4C(=O)N[C@@H](C)c4ccc(F)cc4)s3)c2cc1OC [Example 2.12, (S)-2-(((5-(6,7-dimethoxyquinazolin-4-yl)thiophen-2-yl)methyl)amino)-N-(1-(4-fluorophenyl)ethyl) nicotinamide]
IC50 [1, 3]: > 5000 nM | EC50 [2, 4]: 1000 to 10000 nM

C[C@H](NC(=O)c1cc(C#N)cnc1NCc1ccc(-c2ccc(N)nc2)c(F)c1)c1ccc(F)cc1 [Example 129, (S)-2-(4-(6-aminopyridin-3-yl)-3-fluorobenzylamino)-5-cyano-N-(1-(4-fluorophenyl)ethyl) nicotinamide]
IC50 ([1]; inhibition of PDK1 in vitro): 100 to 1000 nM | EC50 [2, 5]: 1000 to 10000 nM

CNc1ncc2cc(O[C@H](C)CNc3ncc(C#N)nc3C(=O)N[C@@H](C)c3ccc(F)c(F)c3)ccc2n1 [Example 252, 6-cyano-N-((S)-1-(3,4-difluorophenyl)ethyl)-3-((R)-2-(2-(methylamino)quinazolin-6-yloxy)propylamino)pyrazine-2-carboxamide]
IC50 ([1]; inhibition of PDK1 in vitro): 100 to 1000 nM | EC50 [2, 6]: 1000 to 10000 nM

C[C@H](NC(=O)c1nc(C#N)cnc1NCc1ccc(-c2cnc3c(c2)c(N)nn3C)cc1)c1ccc(F)c(F)c1 [Example 414, (S)-3-(4-(3-amino-1-methyl-1H-pyrazolo[3,4-b]pyridin-5-yl)benzylamino)-6-cyano-N-(1-(3,4-difluorophenyl)ethyl) pyrazine-2-carboxamide]
IC50 ([1]; inhibition of PDK1 in vitro): 1000 to 5000 nM | EC50 [2, 5]: 1000 to 10000 nM

CCOC(=O)c1cnc(NCc2ccc(-c3ccc4ncnc(N)c4c3)s2)c(C(=O)NCc2ccc(F)c(F)c2)c1 [Example 7.23.2, Ethyl 6-({[5-(4-aminoquinazolin-6-yl)thiophen-2-yl]methyl}amino)-5-[(3,4-difluorobenzyl)carbamoyl]pyridine-3-carboxylate]
IC50 [1, 3]: 100 to 1000 nM | EC50 [2, 4]: < 1000 nM

Nc1ncnc2ccc(-c3ccc(CNc4nccnc4C(=O)NCc4cccc(F)c4)s3)cc12 [Example 3.73, 3-({[5-(4-aminoquinazolin-6-yl)thiophen-2-yl]methyl}amino)-N-(3-fluorobenzyl) pyrazine-2-carboxamide (TFA salt)]
IC50 [1, 3]: < 100 nM | EC50 [2, 4]: 1000 to 10000 nM

C[C@H](NC(=O)c1cc(C#N)cnc1NCc1ncc(-c2cnc3[nH]ncc3c2)cn1)c1ccc(F)cc1 [Example 64, 5-Cyano-N-[(S)-1-(4-fluoro-phenyl)-ethyl]-2-{[5-(1H-pyrazolo[3,4-b]pyridin-5-yl)-pyrimidin-2-ylmethyl]-amino}-nicotinamide]
IC50 ([1]; inhibition of PDK1 in vitro): > 5000 nM | EC50 [2, 5]: > 10000 nM

C[C@H](NC(=O)c1nc(C#N)cnc1NCc1ccc(-c2c[nH]c3ncnc(N)c23)cc1)c1ccc(F)c(F)c1 [Example 315, (S)-3-(4-(4-amino-7H-pyrrolo[2,3-d]pyrimidin-5-yl)benzylamino)-6-cyano-N-(1-(3,4-difluoro-phenyl)ethyl)pyrazine-2-carboxamide]
IC50 ([1]; inhibition of PDK1 in vitro): < 100 nM | EC50 [2, 5]: < 1000 nM

Cc1cc(-c2ccc(CNc3ncc(C(F)(F)F)cc3C(=O)NCc3ccc(F)c(F)c3)cc2)cnc1N [Example 355, 2-(4-(6-amino-5-methylpyridin-3-yl)benzylamino)-N-(3,4-difluorobenzyl)-5-(trifluoromethyl)nicotinamide]
IC50 ([1]; inhibition of PDK1 in vitro): < 100 nM | EC50 [2, 5]: 1000 to 10000 nM

C[C@H](NC(=O)c1nc(C#N)cnc1NCc1ccc(-c2cnc(N)c(CCC3CCNC3)n2)cc1)c1ccc(F)c(F)c1 (single isomer, unassigned) [Example 79]
IC50 ([1]; inhibition of PDK1 in vitro): < 100 nM | EC50 [2, 6]: < 1000 nM

C[C@H](NC(=O)c1cc(C#N)cnc1NCc1ccc(-c2cccc3n[nH]c(=O)n23)cc1)c1ccc(F)cc1 [Example 144, (S)-5-cyano-N-(1-(4-fluorophenyl)ethyl)-2-(4-(3-oxo-2,3-dihydro-[1,2,4]triazolo[4,3-a]pyridin-5-yl)benzyl-amino)nicotinamide]
IC50 ([1]; inhibition of PDK1 in vitro): > 5000 nM | EC50 [2, 5]: > 10000 nM

CN(Cc1ccc(F)c(F)c1)C(=O)c1cccnc1NCc1ccc(-c2ccc3ncnc(N)c3c2)s1 [Example 3.13, 2-({[5-(4-aminoquinazolin-6-yl)thiophen-2-yl]methyl}amino)-N-(3,4-difluorobenzyl)-N-methylpyridine-3-carboxamide (TFA salt)]
IC50 [1, 3]: 100 to 1000 nM | EC50 [2, 4]: > 10000 nM

C[C@H](NC(=O)c1nc(C#N)cnc1NCc1ccc(-c2cnc(N)c(CCCN)n2)cc1)c1ccc(F)c(F)c1 [Example 94, 3-{4-[5-Amino-6-(3-amino-propyl)-pyrazin-2-yl]-benzyl-amino}-6-cyano-pyrazine-2-carboxylic acid [(S)-1-(3,4-difluoro-phenyl)-ethyl]-amide]
IC50 ([1]; inhibition of PDK1 in vitro): < 100 nM | EC50 [2, 5]: < 1000 nM

CCN(CC)CCNC(=O)c1cc(-c2ccc(CNc3ncc(C#N)cc3C(=O)N[C@@H](C)c3ccc(F)cc3)cc2)cnc1N [Example 118]
IC50 ([1]; inhibition of PDK1 in vitro): < 100 nM | EC50 [2, 5]: 1000 to 10000 nM

O=C(NCc1ccc(F)c(F)c1)c1cc(C(F)(F)F)cnc1NCc1ccc(-c2cnc(NCCCO)cn2)cc1 [Example 231, N-(3,4-Difluoro-benzyl)-2-{4-[5-(3-hydroxy-propylamino)-pyrazin-2-yl]-benzylamino}-5-trifluoromethyl-nicotinamide]
IC50 ([1]; inhibition of PDK1 in vitro): 100 to 1000 nM | EC50 [2, 6]: 1000 to 10000 nM

C[C@H](NC(=O)c1cc(C(F)(F)F)cnc1NCc1ccc(-c2cc3c(N)ncnc3cn2)s1)c1ccc(F)cc1 [Example 8.12.7, 2-({[5-(4-aminopyrido [3,4-d]pyrimidin-6-yl)thiophen-2-yl]methyl}amino)-N-[(1S)-1-(4-fluorophenyl)ethyl]-5-(trifluoromethyl) pyridine-3-carboxamide]
IC50 [1, 3]: 100 to 1000 nM | EC50 [2, 4]: < 1000 nM

C[C@H](NC(=O)c1nc(C#N)cnc1NCc1ccc(-c2cnc3[nH]nc(N)c3c2)cc1)c1ccc(F)cc1 [Example 32, (S)-3-(4-(3-amino-1H-pyrazolo[3,4-b]pyridin-5-yl)benzylamino)-6-cyano-N-(1-(4-fluorophenyl)ethyl) pyrazine-2-carboxamide]
IC50 [1, 3]: < 100 nM | EC50 [2, 4]: < 1000 nM

COc1cc(F)ccc1NC(=O)c1cc(C(F)(F)F)cnc1NCc1ccc(-c2cnc3[nH]nc(N)c3c2)cc1 [Example 261, 2-(4-(3-amino-1H-pyrazolo [3,4-b]pyridin-5-yl)benzylamino)-N-(4-fluoro-2-methoxyphenyl)-5-(trifluoromethyl)nicotinamide]
IC50 ([1]; inhibition of PDK1 in vitro): < 100 nM | EC50 [2, 5]: 1000 to 10000 nM

CC(Nc1ncccc1C(=O)NCc1ccc(F)c(F)c1)c1ccc(-c2ccc3ncnc(N)c3c2)s1 (stereo not drawn) [Ex. 7.2]
IC50 [1, 3]: 100 to 1000 nM | EC50 ([2]; Homo sapiens, PC-3, 2 h, inhibition of P308 Akt in PC-3 cells, MSD): 1000 to 10000 nM

C[C@H](NC(=O)c1cc(C#N)cnc1NCc1ccc(-c2ccc(N)nc2)cc1)c1ccc(F)c(F)c1 [Example 367, (S)-2-(4-(6-aminopyridin-3-yl)benzylamino)-5-cyano-N-(1-(3,4-difluorophenyl)ethyl) nicotinamide]
IC50 ([1]; inhibition of PDK1 in vitro): < 100 nM | EC50 [2, 5]: < 1000 nM

Nc1cnc(-c2ccc(CNc3ncc(C(F)(F)F)cc3C(=O)NCc3ccc(F)c(F)c3)cc2)cn1 [Example 124, 2-(4-(5-aminopyrazin-2-yl)benzylamino)-N-(3,4-difluorobenzyl)-5-(trifluoromethyl) nicotinamide]
IC50 ([1]; inhibition of PDK1 in vitro): < 100 nM | EC50 [2, 5]: < 1000 nM

CNS(=O)(=O)c1cnc(NCc2ccc(-c3ccc4ncnc(N)c4c3)s2)c(C(=O)N[C@@H](C)c2ccc(F)cc2)c1 [Example 8.7.7, 2-({[5-(4-aminoquinazolin-6-yl)thiophen-2-yl]methyl}amino)-N-[(1S)-1-(4-fluorophenyl)ethyl]-5-(methylsulfamoyl) pyridine-3-carboxamide]
IC50 [1, 3]: 100 to 1000 nM | EC50 [2, 4]: 1000 to 10000 nM
